Test system: A549 cells
Assay: A549 microarray comparing macrolides with arachidonic acid pathway inhibitors, with IL-1β stimulation (Appendix C, Tables 6-9), and correlation analysis
Type: cell-based
From the text: One inhibitor, triacsin C, acts on AA biosynthesis by inhibiting arachidonyl CoA synthetases, blocking the incorporation of free AA into phospholipids. Triacsin C is reasonably specific for AA compared to other fatty acids. However, triacsin C structurally resembles AA so it also may interfere with other steps in the AA pathway. Indomethacin is an inhibitor of COX1 and COX2 enzyme activities and therefore specifically blocks metabolism of AA into prostaglandins. […] It inhibits transcription of PLA2, and transcriptionally and post-transcriptionally regulates COX1 and COX2 activities. Dexamethasone has additional effects unrelated to AA through binding with the glucocorticoid receptor to glucocortcoid response elements.
A549 cells were pre-incubated overnight (17 hours) with macrolides (10 μM FMA-9045, 50 μM clarithromycin, 50 μM roxithromycin, 50 μM josamycin) and 15 μM triacsin C, and pre-incubated 2 hours with 100 nM indomethacin and 100 nM dexamethasone. All cells then were stimulated for 4 hours with IL-1β, because the activation of PLA2 and downstream signaling events generally requires an inflammatory stimulus. The various treatment conditions are shown below in Table 4. Following macrolide and inhibitor pre-treatment and IL-1 stimulation, the cells were lysed, total RNA was collected, and the poly-A+ mRNA fraction was purified. The resulting microarray data (Appendix C) were analyzed using the methods described in the Examples above.
The tables in Appendix C represent the effects of the arachidonic acid pathway inhibitors (“AA pathway inhibitors”) and the effects of the macrolides (“IL1+macrolide effects”). […] In both tables in Appendix C, the genes that meet this criterion (≧1.3 min fold change) are indicated in bold.
Quantitative analysis was done to determine how well the responses to the different AA pathway inhibitors correlated. The correlation values were assigned a p-value to provide statistical confidence to the correlation value. Correlation between experiments, across all spots showing good detection, was assessed by cosine vector angle to generate the data shown in Tables 7-9. A correlation coefficient close to one indicates strong correlation, whereas a value near zero indicates no correlation. P-values for each correlation coefficient were estimated based on a Fisher permutation test. In this test, each spot's expression ratios were randomly re-ordered across experiments and the degree of correlation between experiments was then reassessed. This was done repeatedly.

[1] = A549 cells, +IL1b +/- inhibitor

SMILES: C[C@@H]1C[C@H]2[C@@H]3CCC4=CC(=O)C=C[C@]4(C)[C@@]3(F)[C@@H](O)C[C@]2(C)[C@@]1(O)C(=O)CO [Dexa]
- wtd means, SpotID 46796 STC1 (stanniocalcin 1) [1]: 1.41
- wtd means, SpotID 46950 SERPINA3 (serine (or cysteine) proteinase inhibitor, clade A, member 3) [1]: 1.39
- wtd means, SpotID 46985 RIPK2 (RIP2, RICK; receptor-interacting serine-threonine kinase 2) [1]: 1.83
- wtd means, SpotID 47155 TNFAIP6 (tumor necrosis factor, alpha-induced protein 6) [1]: 1.27
- wtd means, SpotID 47166 SERPINA6 (serine (or cysteine) proteinase inhibitor, clade A, member 6) [1]: 1.33
- wtd means, SpotID 47444 TKT (transketolase (Wernicke-Korsakoff syndrome)) [1]: 0.83
- wtd means, SpotID 47569 STAT3 (signal transducer and activator of transcription 3) [1]: 1.42
- wtd means, SpotID 47698 PTPRJ (protein tyrosine phosphatase, receptor type, J) [1]: 1.38
- wtd means, SpotID 47987 THBS1 (thrombospondin 1) [1]: 0.66
- wtd means, SpotID 48234 PTPRZ1 (PTP zeta; protein tyrosine phosphatase, receptor-type, Z polypeptide 1) [1]: 1.00
- wtd means, SpotID 48239 TLN1 (talin 1) [1]: 1.53
- wtd means, SpotID 48288 TRAF5 (TNF receptor-associated factor 5) [1]: 1.42
- wtd means, SpotID 48359 RIPK1 (receptor (TNFRSF)-interacting serine-threonine kinase 1) [1]: 1.61
- wtd means, SpotID 48392 RIPK1 (receptor (TNFRSF)-interacting serine-threonine kinase 1) [1]: 1.62
- wtd means, SpotID 48395 TNFRSF7 (CD27; tumor necrosis factor receptor superfamily, member 7) [1]: 1.53
- wtd means, SpotID 48485 UCP1 (uncoupling protein 1 (mitochondrial, proton carrier)) [1]: 1.00
- wtd means, SpotID 48500 RPL13A (ribosomal protein L13a) [1]: 1.65
- wtd means, SpotID 48603 TEAD4 (TEA domain family member 4) [1]: 1.67
- wtd means, SpotID 49330 TNFRSF7 (CD27; tumor necrosis factor receptor superfamily, member 7) [1]: 1.76
- wtd means, SpotID 49899 WWOX (WW domain containing oxidoreductase) [1]: 0.76
- wtd means, SpotID 49901 TROAP (trophinin associated protein (tastin)) [1]: 0.84
- wtd means, SpotID 50379 TNFRSF6 (FAS; tumor necrosis factor receptor superfamily, member 6) [1]: 1.40
- wtd means, SpotID 50428 RPLP0 (ribosomal protein, large, P0) [1]: 0.73
- wtd means, SpotID 50491 TNFRSF6B (DcR3; tumor necrosis factor receptor superfamily, member 6b, decoy) [1]: 1.36

SMILES: O=C(O)Cc1cc(I)c(Oc2ccc(O)c(I)c2)c(I)c1 [Triac]
- min fold change, SpotID 46796 STC1 (stanniocalcin 1) [1]: 1.00
- min fold change, SpotID 46950 SERPINA3 (serine (or cysteine) proteinase inhibitor, clade A, member 3) [1]: 1.00
- min fold change, SpotID 46985 RIPK2 (RIP2, RICK; receptor-interacting serine-threonine kinase 2) [1]: 1.43
- min fold change, SpotID 47155 TNFAIP6 (tumor necrosis factor, alpha-induced protein 6) [1]: 1.02
- min fold change, SpotID 47166 SERPINA6 (serine (or cysteine) proteinase inhibitor, clade A, member 6) [1]: 1.36
- min fold change, SpotID 47193 STAT3 (signal transducer and activator of transcription 3) [1]: 1.32
- min fold change, SpotID 47332 SERPINB3 (serine (or cysteine) proteinase inhibitor, clade B (ovalbumin), member 3) [1]: 1.06
- min fold change, SpotID 47444 TKT (transketolase (Wernicke-Korsakoff syndrome)) [1]: 1.16
- min fold change, SpotID 47569 STAT3 (signal transducer and activator of transcription 3) [1]: 1.19
- min fold change, SpotID 47697 TNFRSF6B (DcR3; tumor necrosis factor receptor superfamily, member 6b, decoy) [1]: 1.11
- min fold change, SpotID 47698 PTPRJ (protein tyrosine phosphatase, receptor type, J) [1]: 1.11
- min fold change, SpotID 47987 THBS1 (thrombospondin 1) [1]: 1.00
- min fold change, SpotID 48050 RPS6KA2 (ribosomal protein S6 kinase, 90 kD, polypeptide 2) [1]: 1.12
- min fold change, SpotID 48234 PTPRZ1 (PTP zeta; protein tyrosine phosphatase, receptor-type, Z polypeptide 1) [1]: 1.00
- min fold change, SpotID 48239 TLN1 (talin 1) [1]: 1.34
- min fold change, SpotID 48288 TRAF5 (TNF receptor-associated factor 5) [1]: 1.34
- min fold change, SpotID 48359 RIPK1 (receptor (TNFRSF)-interacting serine-threonine kinase 1) [1]: 1.00
- min fold change, SpotID 48392 RIPK1 (receptor (TNFRSF)-interacting serine-threonine kinase 1) [1]: 1.00
- min fold change, SpotID 48395 TNFRSF7 (CD27; tumor necrosis factor receptor superfamily, member 7) [1]: 1.09
- min fold change, SpotID 48485 UCP1 (uncoupling protein 1 (mitochondrial, proton carrier)) [1]: 1.15
- min fold change, SpotID 48500 RPL13A (ribosomal protein L13a) [1]: 1.25
- min fold change, SpotID 48594 RPS6KA2 (ribosomal protein S6 kinase, 90 kD, polypeptide 2) [1]: 1.00
- min fold change, SpotID 48603 TEAD4 (TEA domain family member 4) [1]: 1.38
- min fold change, SpotID 49330 TNFRSF7 (CD27; tumor necrosis factor receptor superfamily, member 7) [1]: 1.51
- min fold change, SpotID 49899 WWOX (WW domain containing oxidoreductase) [1]: 1.51
- min fold change, SpotID 49901 TROAP (trophinin associated protein (tastin)) [1]: 1.01
- min fold change, SpotID 50379 TNFRSF6 (FAS; tumor necrosis factor receptor superfamily, member 6) [1]: 1.04
- min fold change, SpotID 50428 RPLP0 (ribosomal protein, large, P0) [1]: 1.00
- min fold change, SpotID 50491 TNFRSF6B (DcR3; tumor necrosis factor receptor superfamily, member 6b, decoy) [1]: 1.36
- wtd means, SpotID 46796 STC1 (stanniocalcin 1) [1]: 1.05
- wtd means, SpotID 46950 SERPINA3 (serine (or cysteine) proteinase inhibitor, clade A, member 3) [1]: 1.06
- wtd means, SpotID 46985 RIPK2 (RIP2, RICK; receptor-interacting serine-threonine kinase 2) [1]: 1.70
- wtd means, SpotID 47155 TNFAIP6 (tumor necrosis factor, alpha-induced protein 6) [1]: 1.08
- wtd means, SpotID 47166 SERPINA6 (serine (or cysteine) proteinase inhibitor, clade A, member 6) [1]: 1.48
- wtd means, SpotID 47193 STAT3 (signal transducer and activator of transcription 3) [1]: 1.47
- wtd means, SpotID 47332 SERPINB3 (serine (or cysteine) proteinase inhibitor, clade B (ovalbumin), member 3) [1]: 1.22
- wtd means, SpotID 47444 TKT (transketolase (Wernicke-Korsakoff syndrome)) [1]: 0.76
- wtd means, SpotID 47569 STAT3 (signal transducer and activator of transcription 3) [1]: 1.34
- wtd means, SpotID 47697 TNFRSF6B (DcR3; tumor necrosis factor receptor superfamily, member 6b, decoy) [1]: 1.24
- wtd means, SpotID 47698 PTPRJ (protein tyrosine phosphatase, receptor type, J) [1]: 1.17
- wtd means, SpotID 47987 THBS1 (thrombospondin 1) [1]: 0.87
- wtd means, SpotID 48234 PTPRZ1 (PTP zeta; protein tyrosine phosphatase, receptor-type, Z polypeptide 1) [1]: 1.00
- wtd means, SpotID 48239 TLN1 (talin 1) [1]: 1.41
- wtd means, SpotID 48288 TRAF5 (TNF receptor-associated factor 5) [1]: 1.60
- wtd means, SpotID 48359 RIPK1 (receptor (TNFRSF)-interacting serine-threonine kinase 1) [1]: 1.27
- wtd means, SpotID 48392 RIPK1 (receptor (TNFRSF)-interacting serine-threonine kinase 1) [1]: 1.08
- wtd means, SpotID 48395 TNFRSF7 (CD27; tumor necrosis factor receptor superfamily, member 7) [1]: 1.50
- wtd means, SpotID 48485 UCP1 (uncoupling protein 1 (mitochondrial, proton carrier)) [1]: 1.59
- wtd means, SpotID 48500 RPL13A (ribosomal protein L13a) [1]: 1.37
- wtd means, SpotID 48603 TEAD4 (TEA domain family member 4) [1]: 1.65
- wtd means, SpotID 49330 TNFRSF7 (CD27; tumor necrosis factor receptor superfamily, member 7) [1]: 1.73
- wtd means, SpotID 49899 WWOX (WW domain containing oxidoreductase) [1]: 1.62
- wtd means, SpotID 49901 TROAP (trophinin associated protein (tastin)) [1]: 0.90
- wtd means, SpotID 50379 TNFRSF6 (FAS; tumor necrosis factor receptor superfamily, member 6) [1]: 1.41
- wtd means, SpotID 50428 RPLP0 (ribosomal protein, large, P0) [1]: 0.84
- wtd means, SpotID 50491 TNFRSF6B (DcR3; tumor necrosis factor receptor superfamily, member 6b, decoy) [1]: 1.56

SMILES: C[C@@H]1C[C@H]2[C@@H]3CCC4=CC(=O)C=C[C@]4(C)[C@@]3(F)[C@@H](O)C[C@]2(C)[C@@]1(O)C(=O)CO [dexamethasone]
- Total # Differential Genes (95% confidence) (A549, IL1 vs IL1 + drug, threshold 1.3, macrolides 50 μM (FMA 10 μM), triacsin C 15 μM, indomethacin and dexamethasone 100 nM): 341

From US20070172957A1, “Methods of identifying anti-inflammatory macrolides” (TAISHO PHARMACEUTICAL CO., LTD., priority 2004, published 2007)
